This passage reports IC50, Kb and ED50 results from ChEMBL document CHEMBL1127503, “3'-(Arylmethyl)- and 3'-(aryloxy)-3-phenyl-4-hydroxyquinolin-2(1H)-ones: orally active antagonists of the glycine site on the NMDA receptor” (J Med Chem, 1994).

In experiment [1] the target is Glutamate receptor ionotropic, NMDA 1 (Rattus norvegicus, UniProt P35439). Nature of the experiment: Inhibition of the binding of [3H]L-689,560 ([3H]-4) to the strychnine-insensitive glycine site on rat brain membranes. The class given is cell membranes, Membrane.
The species entered for a further experiment is Rattus norvegicus. Description: Blockade of NMDA-induced depolarizations on rat cortical slices. The class given is functional.
The test system of experiment [2] is Mus musculus. Description: Protection from audiogenic seizure in the DBA/2 mouse 30 min after intraperitoneal administration. To be noted: ip, 0.5 h. The class given is functional.
Experiment [3] relates to Mus musculus. Nature of the experiment: Protection from audiogenic seizure in the DBA/2 mouse 30 min after oral administration. To be noted: 0.5 h. The experiment is classed as functional.
For experiment [4], the system named is Mus musculus. Description: Protection from audiogenic seizure in the DBA/2 mouse 10 min after intraperitoneal administration. To be noted: ip. The experiment is classed as functional.

The structures appear in SMILES notation.

On to `O=C(O)c1cc(O)c2c(I)cc(Cl)cc2n1`, for which the 50% inhibitory concentration (IC50) in experiment [1] was 14 nM. Moreover, the Kb in the experiment listed under Rattus norvegicus was determined as 410 nM. In addition, in the experiment on Mus musculus [2], the ED50 is above 250 mg/kg.

In the case of `Oc1nc2cc(Cl)ccc2c(O)c1-c1cccc(Cc2ccsc2)c1`, the values for the ED50 in the experiment on Mus musculus [3] and in the experiment with Mus musculus [2] were 5.1 mg/kg and 1.5 mg/kg, respectively. The IC50 in experiment [1] worked out at 2.3 nM. Also, in the experiment listed under Rattus norvegicus, the Kb stood at 19 nM.

`O=C(Nc1ccccc1)N[C@H]1C[C@H](C(=O)O)Nc2cc(Cl)cc(Cl)c21` had an IC50 in experiment [1] of 4 nM. In the experiment listed under Rattus norvegicus, this molecule had a Kb of 110 nM. In the experiment with Mus musculus [2], this molecule gave an ED50 above 100 mg/kg.

`COc1ccc(Cc2cccc(-c3c(O)c4ccc(Cl)cc4[nH]c3=O)c2)cc1`: the ED50 in the experiment with Mus musculus [3] was determined as 0.9 mg/kg; in the experiment with Mus musculus [2], 0.7 mg/kg. The molecule further showed a concentration for half-maximal inhibition (IC50) in experiment [1] of 4.5 nM. In addition, the Kb in the experiment filed under Rattus norvegicus came out at 25 nM.

In experiment [1], `O=C(O)CCc1c(C(=O)O)[nH]c2cc(Cl)cc(Cl)c12` had a 50% inhibitory concentration (IC50) of 69 nM. Besides, in the experiment filed under Rattus norvegicus, the Kb was determined as 1320 nM. Also, the ED50 in the experiment with Mus musculus [2] is above 100 mg/kg.

`O=c1[nH]c2cc(Cl)ccc2c(O)c1-c1ccccc1`: the ED50 in the experiment with Mus musculus [3] turned out to be 7.6 mg/kg; in the experiment on Mus musculus [2], 4.5 mg/kg. Further, the half-maximal inhibitory concentration (IC50) in experiment [1] worked out at 170 nM. The molecule also yielded a Kb in the experiment filed under Rattus norvegicus of 880 nM.

On to `COCOc1ccc(Cc2cccc(-c3c(O)nc4cc(Cl)ccc4c3O)c2)cc1`, for which the ED50 stood at 0.9 mg/kg in the experiment with Mus musculus [3] and 0.5 mg/kg in the experiment with Mus musculus [2]. The IC50 in experiment [1] is 2.2 nM. This molecule also showed a Kb in the experiment filed under Rattus norvegicus of 3.2 nM.

Turning to `O=c1[nH]c2cc(Cl)ccc2c(O)c1-c1cccc(Oc2ccccc2)c1`, the 50% effective dose (ED50) in the experiment with Mus musculus [3] and in the experiment with Mus musculus [2] was 0.9 mg/kg throughout. Further, the 50% inhibitory concentration (IC50) in experiment [1] was determined as 2 nM. The Kb in the experiment filed under Rattus norvegicus was 28 nM.

Regarding `Oc1nc2cc(Cl)ccc2c(O)c1-c1cccc(Oc2ccsc2)c1`, the median effective dose (ED50) with Mus musculus [3] and in the experiment on Mus musculus [2] was 0.8 mg/kg each time. Further, the IC50 in experiment [1] came to 1.4 nM. In the experiment listed under Rattus norvegicus, this molecule gave a Kb of 5 nM.

Take `Oc1nc2cc(Cl)ccc2c(O)c1-c1cccc(Cc2ccccc2)c1`: the median effective dose (ED50) amounted to 3.9 mg/kg with Mus musculus [3] and 1.3 mg/kg in the experiment with Mus musculus [4]. In the experiment listed under Rattus norvegicus, this molecule returned a Kb of 87 nM.
